This is an account of results in ChEMBL document CHEMBL3351608, “2-Phenylindole and Arylsulphonamide: Novel Scaffolds Bactericidal against Mycobacterium tuberculosis” (ACS Med Chem Lett, 2014).

Data set [1] has as its system Mycobacterium tuberculosis. As to the kind of experiment: microbe, parasite or virus in culture. To be noted: H37Rv, 120 h.
Description: Antimicrobial activity against wild-type Mycobacterium tuberculosis H37Rv assessed as growth inhibition after 5 days by microdilution method
Data set [2] has as its system Mycobacterium tuberculosis. Put plainly: microbe, parasite or virus in culture. The following applies: 120 h.
Description: Antimicrobial activity against Mycobacterium tuberculosis assessed as growth inhibition after 5 days by microdilution method
A short description of data set [3]: Lipophilicity, log D of the compound. The following applies: octanol/water. Format: physicochemical.
Data set [4] can be described thus: Aqueous solubility of the compound. The class given is physicochemical. To be noted: buffer.
For data set [5], the system named is Mycobacterium tuberculosis. Put plainly: Bactericidal activity against Mycobacterium tuberculosis H37Rv after 5 days. The class given is functional. The following applies: 120 h.
Data set [6] deals with Mycobacterium tuberculosis. Format: functional. The following applies: 120 h.
Data set [7] deals with Mycobacterium tuberculosis. As to the kind of experiment: Bactericidal activity against hypoxia induced nonreplicating persistent Mycobacterium tuberculosis H37Rv assessed as concentration required to reduce >/= 2 log10 CFU/ml after 7 days. The class given is functional.
In data set [8] the test system is Escherichia coli. Put plainly: Antimicrobial activity against Escherichia coli. The class given is functional.
The subject of data set [9] is Haemophilus influenzae. Put plainly: Antimicrobial activity against Haemophilus influenzae. Format: functional.
The test system of data set [10] is Pseudomonas aeruginosa. As to the kind of experiment: Antimicrobial activity against Pseudomonas aeruginosa. The class given is functional.
Data set [11] concerns Klebsiella pneumoniae. As to the kind of experiment: Antimicrobial activity against Klebsiella pneumoniae. Format: functional.
The test system of data set [12] is Staphylococcus aureus. As to the kind of experiment: Antimicrobial activity against Staphylococcus aureus. Format: functional.
Data set [13] concerns Streptococcus pneumoniae. Put plainly: Antimicrobial activity against Streptococcus pneumoniae. Format: functional.
In data set [14] the test system is Mycobacterium tuberculosis. Put plainly: Bactericidal activity against Mycobacterium tuberculosis H37Rv infected in human THP1 cells assessed as reduction in CFU at 1 to 4 times MIC by time-kill method. Format: functional, THP-1.
The nature of data set [15]: Cytotoxicity against human THP1 cells assessed as cell viability after 72 hrs by resazurin staining-based fluorimetric analysis. To be noted: THP-1 cells. (The colour change of resazurin is a common sign of viable cells or microbes.)
Data set [16] concerns Mycolicibacterium smegmatis. Put plainly: Inhibition of oxidative phosphorylation in Mycobacterium smegmatis membrane vesicles assessed as inhibition of NADH driven ATP synthesis by luciferin/luciferase assay. Format: functional.
Data set [17] concerns the target T1, Enoyl-[acyl-carrier-protein] reductase [NADH] (Mycobacterium tuberculosis, UniProt P9WGR1).
T1 sequence (P9WGR1 whole entry): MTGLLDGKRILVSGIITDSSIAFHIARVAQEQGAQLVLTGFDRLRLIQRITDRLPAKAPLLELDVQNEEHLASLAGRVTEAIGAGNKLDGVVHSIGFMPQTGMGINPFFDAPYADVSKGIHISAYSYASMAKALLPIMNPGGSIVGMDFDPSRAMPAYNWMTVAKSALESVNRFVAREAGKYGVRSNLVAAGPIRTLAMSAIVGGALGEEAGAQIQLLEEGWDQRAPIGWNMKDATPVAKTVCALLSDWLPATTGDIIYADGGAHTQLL
Description: Inhibition of Mycobacterium tuberculosis InhA using dodecyl coA as substrate by LC-MS/MS analysis

The target in data set [18] is DNA gyrase subunit A/DNA gyrase subunit B (Mycobacterium tuberculosis (strain ATCC 25618 / H37Rv), UniProt P9WG45+P9WG47).
Sequence of DNA gyrase subunit A/DNA gyrase subunit B (P9WG45 whole entry): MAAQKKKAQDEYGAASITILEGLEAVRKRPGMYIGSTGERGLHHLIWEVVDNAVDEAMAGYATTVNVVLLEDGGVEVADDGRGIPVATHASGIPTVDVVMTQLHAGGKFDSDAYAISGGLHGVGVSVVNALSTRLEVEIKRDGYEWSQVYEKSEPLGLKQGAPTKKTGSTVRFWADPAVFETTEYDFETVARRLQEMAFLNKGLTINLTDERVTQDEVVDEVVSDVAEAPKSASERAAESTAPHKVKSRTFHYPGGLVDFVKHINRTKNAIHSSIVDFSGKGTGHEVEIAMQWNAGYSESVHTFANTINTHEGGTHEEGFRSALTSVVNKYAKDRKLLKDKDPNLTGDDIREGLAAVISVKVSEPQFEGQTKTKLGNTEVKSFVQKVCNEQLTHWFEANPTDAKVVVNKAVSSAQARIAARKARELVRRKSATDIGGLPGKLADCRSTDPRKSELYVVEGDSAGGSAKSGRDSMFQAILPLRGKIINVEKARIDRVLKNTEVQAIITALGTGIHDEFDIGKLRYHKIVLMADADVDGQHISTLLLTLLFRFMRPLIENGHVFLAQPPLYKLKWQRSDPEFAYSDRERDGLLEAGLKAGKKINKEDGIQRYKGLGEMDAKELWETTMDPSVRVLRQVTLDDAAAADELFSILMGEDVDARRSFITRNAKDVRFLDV
Sequence of DNA gyrase subunit A/DNA gyrase subunit B (P9WG47 whole entry): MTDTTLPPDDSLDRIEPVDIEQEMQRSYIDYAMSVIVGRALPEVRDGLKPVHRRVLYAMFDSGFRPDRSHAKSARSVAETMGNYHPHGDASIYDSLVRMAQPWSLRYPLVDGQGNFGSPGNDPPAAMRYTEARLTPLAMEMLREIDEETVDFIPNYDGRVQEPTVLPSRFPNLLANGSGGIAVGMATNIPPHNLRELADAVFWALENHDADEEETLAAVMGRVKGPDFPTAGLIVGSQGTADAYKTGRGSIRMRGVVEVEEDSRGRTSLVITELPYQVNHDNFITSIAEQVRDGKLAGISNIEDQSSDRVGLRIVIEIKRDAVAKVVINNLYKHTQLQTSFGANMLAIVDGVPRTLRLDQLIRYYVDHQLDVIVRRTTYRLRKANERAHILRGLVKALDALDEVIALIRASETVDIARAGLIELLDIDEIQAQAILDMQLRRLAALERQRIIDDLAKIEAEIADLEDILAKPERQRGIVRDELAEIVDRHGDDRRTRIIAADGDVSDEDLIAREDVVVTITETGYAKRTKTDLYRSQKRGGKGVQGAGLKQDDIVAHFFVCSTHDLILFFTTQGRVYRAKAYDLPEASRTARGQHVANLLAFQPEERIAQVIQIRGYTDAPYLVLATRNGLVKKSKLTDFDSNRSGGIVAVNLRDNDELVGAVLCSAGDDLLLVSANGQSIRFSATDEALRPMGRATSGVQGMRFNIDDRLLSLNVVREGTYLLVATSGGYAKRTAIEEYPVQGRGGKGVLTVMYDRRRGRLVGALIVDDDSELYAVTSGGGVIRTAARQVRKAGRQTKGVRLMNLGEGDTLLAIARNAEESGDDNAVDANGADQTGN
Description: Inhibition of Mycobacterium tuberculosis DNA gyrase-mediated relaxed pBR322 DNA supercoiling by gel electrophoresis

Usually logD stands for lipophilicity at a set pH, counting ionised and neutral species. As usually defined, the solubility is how much of the substance goes into solution per volume. Higher therefore signals a readily soluble substance. What is called MBC is the lowest tested concentration that kills the bacteria rather than only halting them. The low end stands for more potent killing, the high end for less potent killing. By CC50 is commonly meant the concentration that lowers cell viability or growth by half. For orientation: IC50 means the concentration at which inhibition is half-maximal.

Values after ≈ are worked out from the molar mass of the structure shown. Where only a bound is given, the exact number is not on record here.

Consider `CC1COC2(CCN(c3nc(=O)c4cc(C(F)(F)F)cc([N+](=O)[O-])c4s3)CC2)O1` (stereo not drawn), for which the MIC in [1] and in data set [2] was 0.01 µM (≈ 0.00431 µg/mL) throughout.
Molecule `Cc1cccc2c(CN3CCCC3)c(-c3ccccc3)[nH]c12` gave a logD in data set [3] of 1.8. The solubility in [4] was determined as 752 µM (≈ 218 µg/mL).
In data set [3], `COCCN(C1CCN(Cc2c(-c3ccccc3)[nH]c3c(C)cccc23)C1)S(C)(=O)=O` (stereo not drawn) showed a logD of 3. In addition, in data set [4], the concentration in solution (solubility) was 5.4 µM (≈ 2.38 µg/mL). In data set [5], the MBC was determined as 3.8 µM (≈ 1.68 µg/mL). Further, the MIC in [6] is 0.8 µM (≈ 0.353 µg/mL); in [8], greater than 200 µM; in [9], greater than 200 µM; in data set [10], greater than 200 µM; in [11], greater than 200 µM; in [12] it was greater than 200 µM. In addition, the figures for the MIC in [13], in data set [1] and in data set [2] were greater than 200 µM, 0.8 µM (≈ 0.353 µg/mL) and 0.8 µM (≈ 0.353 µg/mL), respectively. Besides, the Activity in data set [7] was determined as 3.1 µM. Also, the “fold change (FC)” value in data set [14] is 1.5. The CC50 at 72 h in data set [15] is greater than 64 µM. For the same molecule, the figures for the IC50 in data set [16], in data set [17] and in [18] were 15.6 µM, greater than 100 µM and greater than 100 µM, respectively.
Take `COCCN(C1CCN(Cc2c(-c3ccccc3)[nH]c3c(OC)cccc23)C1)S(C)(=O)=O` (stereo not drawn): the logD in [3] is 2.8. In [4], the concentration in solution (solubility) was 103 µM (≈ 47.1 µg/mL).
`O=S(=O)(NC1CCN(Cc2ccncc2)CC1)c1ccc(-n2cccn2)cc1`: the logD in data set [3] was found to be 2.6. In [4], this molecule returned a solubility of 149 µM (≈ 59.2 µg/mL). Besides, the MBC in data set [5] is 50 µM (≈ 19.9 µg/mL). Besides, the MIC in data set [6] was 3.3 µM (≈ 1.31 µg/mL); in data set [8], greater than 200 µM; in data set [9], greater than 200 µM; in data set [10] it was greater than 200 µM; in data set [11], greater than 200 µM; in data set [12], greater than 200 µM. In addition, the MIC was greater than 200 µM in [13], 3.3 µM (≈ 1.31 µg/mL) in data set [1] and 1.6 µM (≈ 0.636 µg/mL) in data set [2]. Also, the Activity in data set [7] amounted to 25 µM. The CC50 at 72 h in data set [15] is greater than 64 µM. Also, the IC50 was greater than 70 µM in data set [16], greater than 100 µM in data set [17] and greater than 100 µM in data set [18].
In data set [3], `Cc1cc(-n2cccn2)ccc1S(=O)(=O)NC1CCN(Cc2ccncc2)CC1` yielded a logD of 2.3. The molecule further returned a solubility in data set [4] of 66 µM (≈ 27.2 µg/mL). In addition, in data set [5], the MBC was found to be 1.6 µM (≈ 0.658 µg/mL). In addition, the MIC in data set [6] is 0.8 µM (≈ 0.329 µg/mL); in data set [8] it was greater than 200 µM; in [9], greater than 200 µM; in data set [10], greater than 200 µM; in [11] it was greater than 200 µM; in data set [12] it was greater than 200 µM. In addition, the MIC in [13] was greater than 200 µM; in data set [1], 0.8 µM (≈ 0.329 µg/mL). Moreover, the Activity in data set [7] was greater than 200 µM. In addition, the “fold change (FC)” value in [14] came out at 1.5. Also, the CC50 at 72 h in data set [15] was determined as 32 µM.
For `O=S(=O)(NC1CCN(Cc2ccncc2)CC1)c1ccc(-n2cccn2)cn1`, the logD in data set [3] is 1.7. Further, the concentration in solution in data set [4] (solubility) was 1000 µM (≈ 398 µg/mL).
In data set [5], `Cc1cccc2c(CN3CCC(NS(C)(=O)=O)C3)c(-c3ccccc3)[nH]c12` (racemic) yielded an MBC of 1.6 µM (≈ 0.614 µg/mL). Also, the MIC in [6] was 1.6 µM (≈ 0.614 µg/mL); in data set [8] it was greater than 200 µM; in data set [9] it was greater than 200 µM; in [10] it was greater than 200 µM; in data set [11], greater than 200 µM; in data set [12], greater than 200 µM. Besides, the MIC is greater than 200 µM in data set [13] and 1.6 µM (≈ 0.614 µg/mL) in data set [1]. In addition, in data set [7], the Activity was greater than 200 µM. Further, the CC50 at 72 h in [15] was 32 µM.
With `COc1nc2ccc(Br)cc2cc1[C@@H](c1ccccc1)[C@@](O)(CCN(C)C)c1cccc2ccccc12` [BEDAQUILINE], the IC50 in [16] stood at 0.001 µM.
Turning to `NNC(=O)c1ccncc1` [ISONIAZID], the MIC was 0.5 µM (≈ 0.0686 µg/mL) in data set [1] and greater than 7.5 µM in [2].
Take `CO[C@H]1/C=C/O[C@@]2(C)Oc3c(C)c(O)c4c(O)c(c(/C=N/N5CCN(C)CC5)c(O)c4c3C2=O)NC(=O)/C(C)=C\C=C\[C@H](C)[C@H](O)[C@@H](C)[C@@H](O)[C@@H](C)[C@H](OC(C)=O)[C@@H]1C` [RIFAMPIN]: the MIC in [1] and in data set [2] was 0.003 µM (≈ 0.00247 µg/mL) in each case.
